pIC50: −log10 of the molar value. Calls of active or inactive are those of the source. The rule behind the calls is not given here.
Assays:
[1] = biological target: Acetyl-CoA carboxylase 2 (Homo sapiens, UniProt O00763); assay: Inhibition of human recombinant ACC2 expressed in baculovirus/sf9 system
[2] = biological target: Acetyl-CoA carboxylase 1 (Homo sapiens, UniProt Q13085); assay: Inhibition of human recombinant ACC1 expressed in HEK293 cells; format: cell-based
[3] = system: Rattus norvegicus; assay: Drug concentration in Sprague-Dawley rat plasma at 10 mg/kg; format: ADME, organism-based; design: dose 10 mg/kg; details: in vivo
[4] = system: Rattus norvegicus; assay: Reduction of mCoA level in Sprague-Dawley rat liver at 50 mg/kg, po; format: functional
[5] = system: Rattus norvegicus; assay: Reduction of mCoA level in Sprague-Dawley rat liver at 10 mg/kg, po; format: functional, organism-based; design: dose 10 mg/kg
[6] = system: Rattus norvegicus; assay: Reduction of mCoA level in Sprague-Dawley rat muscle at 10 mg/kg, po; format: functional
[7] = system: Rattus norvegicus; assay: Drug concentration in Sprague-Dawley rat plasma at 50 mg/kg; format: ADME, organism-based; design: dose 50 mg/kg; details: in vivo
[8] = system: Rattus norvegicus; assay: Reduction of mCoA level in Sprague-Dawley rat muscle at 50 mg/kg, po; format: functional
[9] = Bioavailability in rat at 5 mg/kg; format: ADME, organism-based; details: in vivo
[10] = Plasma clearance in rat at 5 mg/kg; format: ADME, organism-based; design: dose 5 mg/kg
[11] = Half life in rat at 5 mg/kg, po; format: ADME, organism-based; design: dose 5 mg/kg, route oral; details: in vivo
[12] = Tmax in rat at 5 mg/kg; format: ADME, organism-based; design: dose 5 mg/kg; details: in vivo
[13] = Volume of distribution in rat at 5 mg/kg; format: ADME, organism-based; design: dose 5 mg/kg; details: in vivo, read-out: Vss
[14] = AUC in rat at 5 mg/kg, po; format: ADME, organism-based; design: dose 5 mg/kg, route oral; details: plasma
[15] = Cmax in rat at 5 mg/kg; format: ADME, organism-based; design: dose 5 mg/kg; details: in vivo

Sequence of Acetyl-CoA carboxylase 2 (O00763 whole entry): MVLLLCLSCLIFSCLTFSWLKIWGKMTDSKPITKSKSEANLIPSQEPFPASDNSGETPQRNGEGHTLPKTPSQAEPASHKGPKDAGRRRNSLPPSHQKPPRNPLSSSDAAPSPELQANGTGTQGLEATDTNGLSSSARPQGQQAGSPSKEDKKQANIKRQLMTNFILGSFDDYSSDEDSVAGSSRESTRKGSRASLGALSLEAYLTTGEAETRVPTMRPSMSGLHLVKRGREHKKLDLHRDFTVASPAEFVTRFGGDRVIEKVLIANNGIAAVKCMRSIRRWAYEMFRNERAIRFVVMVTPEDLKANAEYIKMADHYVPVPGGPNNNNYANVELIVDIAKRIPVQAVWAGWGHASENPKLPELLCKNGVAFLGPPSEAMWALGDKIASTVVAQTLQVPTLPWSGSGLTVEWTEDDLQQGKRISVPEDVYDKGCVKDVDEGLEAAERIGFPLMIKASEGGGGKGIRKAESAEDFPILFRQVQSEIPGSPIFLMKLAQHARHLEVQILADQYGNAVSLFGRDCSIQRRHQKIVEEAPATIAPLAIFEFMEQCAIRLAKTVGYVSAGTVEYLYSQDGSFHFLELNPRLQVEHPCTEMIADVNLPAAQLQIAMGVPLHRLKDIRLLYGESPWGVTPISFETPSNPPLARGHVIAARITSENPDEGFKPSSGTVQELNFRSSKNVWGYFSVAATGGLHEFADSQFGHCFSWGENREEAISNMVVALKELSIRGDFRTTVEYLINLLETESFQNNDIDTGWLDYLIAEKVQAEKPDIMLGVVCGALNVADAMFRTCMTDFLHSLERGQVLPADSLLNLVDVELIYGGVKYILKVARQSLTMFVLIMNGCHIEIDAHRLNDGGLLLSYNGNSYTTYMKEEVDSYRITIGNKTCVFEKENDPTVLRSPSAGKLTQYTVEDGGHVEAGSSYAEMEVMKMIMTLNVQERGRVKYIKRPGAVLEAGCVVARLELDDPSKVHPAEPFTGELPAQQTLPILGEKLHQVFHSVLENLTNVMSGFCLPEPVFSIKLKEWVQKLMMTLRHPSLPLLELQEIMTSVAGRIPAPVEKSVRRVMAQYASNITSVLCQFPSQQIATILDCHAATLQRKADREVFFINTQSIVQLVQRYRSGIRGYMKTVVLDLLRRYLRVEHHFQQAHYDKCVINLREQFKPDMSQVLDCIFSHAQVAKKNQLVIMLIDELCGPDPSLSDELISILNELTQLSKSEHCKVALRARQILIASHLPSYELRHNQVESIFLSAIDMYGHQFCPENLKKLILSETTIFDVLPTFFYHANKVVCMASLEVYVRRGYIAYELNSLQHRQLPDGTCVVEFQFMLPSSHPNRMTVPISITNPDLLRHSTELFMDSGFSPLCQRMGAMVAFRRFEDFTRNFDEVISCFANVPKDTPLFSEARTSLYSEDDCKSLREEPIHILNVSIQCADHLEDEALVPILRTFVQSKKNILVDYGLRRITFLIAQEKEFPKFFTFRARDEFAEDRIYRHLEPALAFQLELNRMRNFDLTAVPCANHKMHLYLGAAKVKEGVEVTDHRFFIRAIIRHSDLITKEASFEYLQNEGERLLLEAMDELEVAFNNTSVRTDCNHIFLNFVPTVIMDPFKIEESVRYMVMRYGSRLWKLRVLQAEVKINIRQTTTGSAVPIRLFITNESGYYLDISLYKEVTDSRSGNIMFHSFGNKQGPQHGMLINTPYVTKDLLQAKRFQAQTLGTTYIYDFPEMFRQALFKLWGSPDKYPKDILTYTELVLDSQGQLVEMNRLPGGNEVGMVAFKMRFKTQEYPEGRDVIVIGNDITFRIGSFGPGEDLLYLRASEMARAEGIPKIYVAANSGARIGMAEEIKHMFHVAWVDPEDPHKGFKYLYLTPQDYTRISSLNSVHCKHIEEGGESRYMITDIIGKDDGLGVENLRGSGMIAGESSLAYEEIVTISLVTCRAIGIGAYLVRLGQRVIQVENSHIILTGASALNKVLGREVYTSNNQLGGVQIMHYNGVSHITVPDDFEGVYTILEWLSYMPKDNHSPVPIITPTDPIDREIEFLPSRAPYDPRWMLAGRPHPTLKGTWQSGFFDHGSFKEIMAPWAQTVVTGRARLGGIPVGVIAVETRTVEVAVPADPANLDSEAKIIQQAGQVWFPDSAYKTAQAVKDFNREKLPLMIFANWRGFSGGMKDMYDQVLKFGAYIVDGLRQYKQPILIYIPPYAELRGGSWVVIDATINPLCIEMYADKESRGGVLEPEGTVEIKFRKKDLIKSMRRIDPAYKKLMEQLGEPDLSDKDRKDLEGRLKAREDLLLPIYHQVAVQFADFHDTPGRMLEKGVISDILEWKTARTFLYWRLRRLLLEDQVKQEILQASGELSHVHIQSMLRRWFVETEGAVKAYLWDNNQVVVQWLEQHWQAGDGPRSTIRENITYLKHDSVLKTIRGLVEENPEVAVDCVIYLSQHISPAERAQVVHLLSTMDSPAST

| Compound | pIC50 [1] | pIC50 [2] | other results |
| --- | --- | --- | --- |
| CC(=O)NC(C)C#Cc1ccc(Oc2ccc(OC(C)C)cc2)cc1 (stereo not drawn) | 8.22 | 7.54 | – |
| CC(=O)NC(C#Cc1cnc(Oc2ccc(OC(C)C)cc2)s1)C1CC1 (stereo not drawn) | 6.08 | < 4.52 | – |
| CC(=O)NCC#Cc1cnc(Oc2ccc(OC(C)C)cc2)s1 | 5.76 | < 4.52 | – |
| CC(C#Cc1cnc(Oc2ccc(Oc3ccccc3)cc2)s1)N(O)C(N)=O (stereo not drawn) | 7.10 | 6.00 | – |
| CC(=O)NC(C)C#Cc1cnc(Oc2ccc(C(C)C)cc2)s1 (stereo not drawn) | < 4.52 | 5.90 | – |
| CC(=O)NC(C)C#Cc1cnc(Oc2ccc(OC(C)C)cc2)s1 (stereo not drawn) | 7.72 | < 4.52 | – |
| COC(=O)N[C@H](C)C#Cc1cnc(Oc2ccc(OC(C)C)cc2)s1 | 5.82 | < 4.52 | Cp [3]: 1330 ng/mL; Activity [4]: inactive; Activity [5]: inactive; Activity ([6]; Muscle tissue): inactive; Cp [7]: 5330 ng/mL; Activity ([8]; Muscle tissue): inactive |
| O=C(c1c2ccccc2cc2ccccc12)N1CCC(N2CCC[C@@H](C(=O)N3CCOCC3)C2)CC1 | 7.42 | 6.39 | – |
| CC(=O)NC(C)C#Cc1cnc(Oc2ccc(SC(C)C)cc2)s1 (stereo not drawn) | 7.26 | 6.43 | – |
| CC(C#Cc1cnc(Oc2ccc(Oc3ccccc3)cc2)s1)NC(N)=O (stereo not drawn) | 7.59 | < 4.52 | – |
| COC(=O)N[C@@H](C)C#Cc1cnc(Oc2ccc(OC(C)C)cc2)s1 | 7.42 | < 4.52 | Cp [3]: 1540 ng/mL; Activity [4]: 26%; Activity [6]: 36%; Cp [7]: 4900 ng/mL; Activity [8]: 54% |
| CC(=O)NC(C)C#Cc1csc(Oc2ccc(OC(C)C)cc2)n1 (stereo not drawn) | < 4.52 | < 4.52 | – |
| CC(O)C#Cc1cnc(Oc2ccc(Oc3ccccc3)cc2)s1 (stereo not drawn) | 6.22 | < 4.52 | – |
| CC(=O)NC(C)C#Cc1cnc(Oc2ccc(OC(C)C)nc2)s1 (stereo not drawn) | 7.82 | 6.41 | – |
| CC(N)C#Cc1cnc(Oc2ccc(Oc3ccccc3)cc2)s1 (stereo not drawn) | 5.62 | < 4.52 | – |
| CNC(=O)NC(C)C#Cc1cnc(Oc2ccc(OC(C)C)cc2)s1 (stereo not drawn) | 7.52 | < 4.52 | – |
| CC(=O)NC(C)C#Cc1cnc(Oc2ccc(NC(C)C)cc2)s1 (stereo not drawn) | 6.82 | < 4.52 | – |
| CC(=O)NC(C)C#Cc1cnc(Sc2ccc(OC(C)C)cc2)s1 (stereo not drawn) | 7.16 | < 4.52 | – |
| COC(=O)NC(C)C#Cc1cnc(Oc2ccc(OC(C)C)cc2)s1 (stereo not drawn) | 7.02 | < 4.52 | bioavailability [9]: 80.4%; clearance [10]: 3.33 mL/min/kg; half-life [11]: > 12 h; Tmax [12]: 2 h; Vd [13]: 5 L/kg; AUC [14]: 18900 ng·h/mL; Cmax [15]: 900 ng/mL |
| CC(=O)NC(C)C#Cc1cnc(Oc2ccc(Oc3ccccc3)cc2)s1 (stereo not drawn) | 7.96 | 6.59 | – |
